# According to patent US20190343908A1, “Therapeutic Combination for the Treatment of Cancer” (Nerium Biotechnology Inc., priority 2011, published 2019):
# Legend:
# Assay type in all cases: cell-based, human
# [1] = tested on: A375 melanoma cancer cell line; test: Methyl-Tetrazolium viability assay, A375; settings: for ABSORBANCE: 0.1 μg/mL cisplatin; for Average absorbance, MTT 24 h / Average absorbance, MTT 48 h / Average absorbance, MTT 72 h: A375 Run 1
# Text: (§1) Three different viability assays were chosen to complement each other and yielded results dependent on concentration and cell line: the Methyl Tetrazolium dye assay, the Sulforhodamine B fluorescent dye assay, and the Crystal Violet dye assay.
# (§2) The Methyl-Tetrazolium dye assay measures the activity of enzymes in mitochondria. The dye precursor is taken up by cells, where it undergoes reduction to the purple formazan. It measures only the mitochondrial activity and, thus, it is not always a reliable indication of whether the cells themselves are alive or dead, since even a recently dead cell has […] enzyme activity in mitochondria. Intracellular glucose concentration, pH, and time before assay all affect the measurements.
# (§3) The Methyl Tetrazolium, Sulforhodamine B, and Crystal Violet assays were used to assess cell viabilities. The incubation times were 24 hours, 48 hours, and 72 hours. The Nerium oleander extract Anvirzel™ (a hot water extract of oleander obtained from Salud Integral, Honduras) was tested in concentrations ranging from 0.01 ng/mL to 10 ng/mL.
# (§4) Cells were detached by trypsinization (Trypsin-0.25% EDTA, Invitrogen, 25200-072) during the logarithmic phase of culture growth and plated in 96-well plates (18.000 cells/well) (Corning, Costar 359) in a final volume of 200 μl of medium per well. […] The absorbance was measured after 24 hours, 48 hours, and 72 hours of incubation.
# (§5) For the Methyl-Tetrazolium assay, the dye (Sigma, M2128; 5 mg/mL, diluted in phosphate-buffered saline) was added to each well and plates were incubated for 3 hours at 37° C. After the end of the incubation period, the medium was discarded and the cells were rinsed with phosphate-buffered saline. Finally, the formazan crystals were dissolved in dimethylsulphoxide (Sigma, D4540).
# (§6) The optical density of each plate was measured on a μQuant spectrophotometer and the data were analyzed with Gen5 software (μQuant Biomolecular Spectrophotometer MQX200 and Gen5™ Microplate Data Collection & Analysis software, BioTek® Instruments. Inc, April 2008). Absorbance was measured at 570 nm for all assays and a second wavelength was measured in order to subtract noise. For the Methyl-Tetrazolium assay this second wavelength was 630 nm and for the Sulforhodamine B and Crystal Violet assays it was 690 nm.
# [2] = tested on: COR-L 105 (non-small cell lung carcinoma); test: Methyl-Tetrazolium viability assay, COR-L 105; set-up: key to MTT Average: absorbance (optical density) at 570 nm, second wavelength subtracted; settings: for MTT Average 24 h / MTT Average 48 h / MTT Average 72 h: COR-L 105, Run 3
# Text: as §1, §2, §3, §4, §5, §6
# [3] = tested on: HCT-116 (colorectal cancer); test: Methyl-Tetrazolium viability assay, HCT-116; set-up: key: absorbance (optical density) at 570 nm, second wavelength subtracted; settings: for Average MTT: HCT-116
# Text: as §1, §2, §3, §4, §5, §6
smiles,measurement,setting,value
N.N.[Cl][Pt][Cl] [cisplatin],ABSORBANCE,"[1]; A375, 48 h",0.332
same,ABSORBANCE,"[1]; A375, 72 h",0.479
same,"Average absorbance, MTT 24 h",[1]; 0.1 μg/ml CDDP,0.34
same,"Average absorbance, MTT 48 h",[1]; 0.1 μg/ml CDDP,0.332
same,"Average absorbance, MTT 72 h",[1]; 0.1 μg/ml CDDP,0.479
same,"Average absorbance, MTT 24 h",[1]; 1 μg/ml CDDP,0.068
same,"Average absorbance, MTT 48 h",[1]; 1 μg/ml CDDP,0.048
same,"Average absorbance, MTT 72 h",[1]; 1 μg/ml CDDP,0.042
same,"Average absorbance, MTT 24 h",[1]; 10 μg/ml CDDP,0.066
same,"Average absorbance, MTT 48 h",[1]; 10 μg/ml CDDP,0.044
same,"Average absorbance, MTT 72 h",[1]; 10 μg/ml CDDP,0.04
same,"Average absorbance, MTT 24 h",[1]; 100 μg/ml CDDP,0.049
same,"Average absorbance, MTT 48 h",[1]; 100 μg/ml CDDP,0.038
same,"Average absorbance, MTT 72 h",[1]; 100 μg/ml CDDP,0.036
same,Average absorbance MTT,"[1]; A375 Run 2, 24 h, 0.1 μg/ml CDDP",0.367
same,Average absorbance MTT,"[1]; A375 Run 2, 24 h, 1 μg/ml CDDP",0.047
same,Average absorbance MTT,"[1]; A375 Run 2, 24 h, 10 μg/ml CDDP",0.049
same,Average absorbance MTT,"[1]; A375 Run 2, 24 h, 100 μg/ml CDDP",0.031
same,Average absorbance MTT,"[1]; A375 Run 2, 48 h, 0.1 μg/ml CDDP",0.598
same,Average absorbance MTT,"[1]; A375 Run 2, 48 h, 1 μg/ml CDDP",0.046
same,Average absorbance MTT,"[1]; A375 Run 2, 48 h, 10 μg/ml CDDP",0.045
same,Average absorbance MTT,"[1]; A375 Run 2, 48 h, 100 μg/ml CDDP",0.048
same,Average absorbance MTT,"[1]; A375 Run 2, 72 h, 0.1 μg/ml CDDP",0.696
same,Average absorbance MTT,"[1]; A375 Run 2, 72 h, 1 μg/ml CDDP",0.049
same,Average absorbance MTT,"[1]; A375 Run 2, 72 h, 10 μg/ml CDDP",0.042
same,Average absorbance MTT,"[1]; A375 Run 2, 72 h, 100 μg/ml CDDP",0.038
same,Average absorbance MTT,"[1]; A375 Run 3, 24 h, 0.1 μg/ml CDDP",0.25
same,Average absorbance MTT,"[1]; A375 Run 3, 24 h, 1 μg/ml CDDP",0.052
same,Average absorbance MTT,"[1]; A375 Run 3, 24 h, 10 μg/ml CDDP",0.054
same,Average absorbance MTT,"[1]; A375 Run 3, 24 h, 100 μg/ml CDDP",0.01
same,Average absorbance MTT,"[1]; A375 Run 3, 48 h, 0.1 μg/ml CDDP",0.422
same,Average absorbance MTT,"[1]; A375 Run 3, 48 h, 1 μg/ml CDDP",0.041
same,Average absorbance MTT,"[1]; A375 Run 3, 48 h, 10 μg/ml CDDP",0.037
same,Average absorbance MTT,"[1]; A375 Run 3, 48 h, 100 μg/ml CDDP",0.036
same,Average absorbance MTT,"[1]; A375 Run 3, 72 h, 0.1 μg/ml CDDP",0.413
same,Average absorbance MTT,"[1]; A375 Run 3, 72 h, 1 μg/ml CDDP",0.026
same,Average absorbance MTT,"[1]; A375 Run 3, 72 h, 10 μg/ml CDDP",0.033
same,Average absorbance MTT,"[1]; A375 Run 3, 72 h, 100 μg/ml CDDP",0.031
same,MTT Average 24 h,[2]; 0.1 μg/ml CDDP,0.056
same,MTT Average 48 h,[2]; 0.1 μg/ml CDDP,0.069
same,MTT Average 72 h,[2]; 0.1 μg/ml CDDP,0.088
same,MTT Average 24 h,[2]; 1 μg/ml CDDP,0.02
same,MTT Average 48 h,[2]; 1 μg/ml CDDP,0.018
same,MTT Average 72 h,[2]; 1 μg/ml CDDP,0.012
same,MTT Average 24 h,[2]; 10 μg/ml CDDP,0.039
same,MTT Average 48 h,[2]; 10 μg/ml CDDP,0.023
same,MTT Average 72 h,[2]; 10 μg/ml CDDP,0.01
same,MTT Average 24 h,[2]; 100 μg/ml CDDP,0.019
same,MTT Average 48 h,[2]; 100 μg/ml CDDP,0.018
same,MTT Average 72 h,[2]; 100 μg/ml CDDP,0.009
same,MTT Average,"[2]; Run 1, 24 h, 0.1 μg/ml CDDP",0.083
same,MTT Average,"[2]; Run 1, 24 h, 1 μg/ml CDDP",0.023
same,MTT Average,"[2]; Run 1, 24 h, 10 μg/ml CDDP",0.057
same,MTT Average,"[2]; Run 1, 24 h, 100 μg/ml CDDP",0.015
same,MTT Average,"[2]; Run 1, 48 h, 0.1 μg/ml CDDP",0.099
same,MTT Average,"[2]; Run 1, 48 h, 1 μg/ml CDDP",0.018
same,MTT Average,"[2]; Run 1, 48 h, 10 μg/ml CDDP",0.023
same,MTT Average,"[2]; Run 1, 48 h, 100 μg/ml CDDP",0.016
same,MTT Average,"[2]; Run 1, 72 h, 0.1 μg/ml CDDP",0.056
same,MTT Average,"[2]; Run 1, 72 h, 1 μg/ml CDDP",0.017
same,MTT Average,"[2]; Run 1, 72 h, 10 μg/ml CDDP",0.021
same,MTT Average,"[2]; Run 1, 72 h, 100 μg/ml CDDP",0.018
same,MTT Average,"[2]; Run 2, 24 h, 0.1 μg/ml CDDP",0.056
same,MTT Average,"[2]; Run 2, 24 h, 1 μg/ml CDDP",0.02
same,MTT Average,"[2]; Run 2, 24 h, 10 μg/ml CDDP",0.039
same,MTT Average,"[2]; Run 2, 24 h, 100 μg/ml CDDP",0.019
same,MTT Average,"[2]; Run 2, 48 h, 0.1 μg/ml CDDP",0.069
same,MTT Average,"[2]; Run 2, 48 h, 1 μg/ml CDDP",0.018
same,MTT Average,"[2]; Run 2, 48 h, 10 μg/ml CDDP",0.023
same,MTT Average,"[2]; Run 2, 48 h, 100 μg/ml CDDP",0.018
same,MTT Average,"[2]; Run 2, 72 h, 0.1 μg/ml CDDP",0.088
same,MTT Average,"[2]; Run 2, 72 h, 1 μg/ml CDDP",0.012
same,MTT Average,"[2]; Run 2, 72 h, 10 μg/ml CDDP",0.01
same,MTT Average,"[2]; Run 2, 72 h, 100 μg/ml CDDP",0.009
same,MTT Average,"[3]; HCT-116, Run 3, 24 h, 0.1 μg/ml CDDP",0.16
same,MTT Average,"[3]; HCT-116, Run 3, 24 h, 1 μg/ml CDDP",0.041
same,MTT Average,"[3]; HCT-116, Run 3, 24 h, 10 μg/ml CDDP",0.09
same,MTT Average,"[3]; HCT-116, Run 3, 24 h, 100 μg/ml CDDP",0.044
same,MTT Average,"[3]; HCT-116, Run 3, 48 h, 0.1 μg/ml CDDP",0.302
same,MTT Average,"[3]; HCT-116, Run 3, 48 h, 1 μg/ml CDDP",0.039
same,MTT Average,"[3]; HCT-116, Run 3, 48 h, 10 μg/ml CDDP",0.108
same,MTT Average,"[3]; HCT-116, Run 3, 48 h, 100 μg/ml CDDP",0.037
same,MTT Average,"[3]; HCT-116, Run 3, 72 h, 0.1 μg/ml CDDP",0.385
same,MTT Average,"[3]; HCT-116, Run 3, 72 h, 1 μg/ml CDDP",0.041
same,MTT Average,"[3]; HCT-116, Run 3, 72 h, 10 μg/ml CDDP",0.147
same,MTT Average,"[3]; HCT-116, Run 3, 72 h, 100 μg/ml CDDP",0.043
same,Average MTT,"[3]; Run 1, 24 h, 0.1 μg/ml CDDP",0.215
same,Average MTT,"[3]; Run 1, 24 h, 1 μg/ml CDDP",0.037
same,Average MTT,"[3]; Run 1, 24 h, 10 μg/ml CDDP",0.072
same,Average MTT,"[3]; Run 1, 24 h, 100 μg/ml CDDP",0.038
same,Average MTT,"[3]; Run 1, 48 h, 0.1 μg/ml CDDP",0.184
same,Average MTT,"[3]; Run 1, 48 h, 1 μg/ml CDDP",0.027
same,Average MTT,"[3]; Run 1, 48 h, 10 μg/ml CDDP",0.054
same,Average MTT,"[3]; Run 1, 48 h, 100 μg/ml CDDP",0.031
same,Average MTT,"[3]; Run 1, 72 h, 0.1 μg/ml CDDP",0.332
same,Average MTT,"[3]; Run 1, 72 h, 1 μg/ml CDDP",0.03
same,Average MTT,"[3]; Run 1, 72 h, 10 μg/ml CDDP",0.033
same,Average MTT,"[3]; Run 1, 72 h, 100 μg/ml CDDP",0.031
same,Average MTT,"[3]; Run 2, 24 h, 0.1 μg/ml CDDP",0.111
same,Average MTT,"[3]; Run 2, 24 h, 1 μg/ml CDDP",0.053
same,Average MTT,"[3]; Run 2, 24 h, 10 μg/ml CDDP",0.081
same,Average MTT,"[3]; Run 2, 24 h, 100 μg/ml CDDP",0.072
same,Average MTT,"[3]; Run 2, 48 h, 0.1 μg/ml CDDP",0.179
same,Average MTT,"[3]; Run 2, 48 h, 1 μg/ml CDDP",0.044
same,Average MTT,"[3]; Run 2, 48 h, 10 μg/ml CDDP",0.045
same,Average MTT,"[3]; Run 2, 48 h, 100 μg/ml CDDP",0.04
same,Average MTT,"[3]; Run 2, 72 h, 0.1 μg/ml CDDP",0.296
same,Average MTT,"[3]; Run 2, 72 h, 1 μg/ml CDDP",0.054
same,Average MTT,"[3]; Run 2, 72 h, 10 μg/ml CDDP",0.045
same,Average MTT,"[3]; Run 2, 72 h, 100 μg/ml CDDP",0.037
